In this assay the test system is BT-474 cells. Put plainly: Antiproliferative assay. The format is cell-based. Conditions: Homo sapiens, BT-474, 72 h, read-out: Antiproliferative activity IC50, BT-474; SD.

With `CS(=O)(=O)CCNCc1ccc(-c2ccc3ncnc(Nc4ccc(OCc5cccc(F)c5)c(Cl)c4)c3c2)o1` [lapatinib], the IC50 (in general, the point on the concentration scale where inhibition reaches its midpoint) was determined as 25 ± 4 nM.

The values above are taken from publication PMC3998834 (Biopolymers, 2014).
